Columns and labels:
Type in all cases: cell-based
H1299_eGFP cells [1] = test: siNG transfection and sequential adjuvant treatment, eGFP silencing by flow cytometry
H1299_eGFP cells [2] = test: Cell viability following CAD incubation (CellTiter GLO)
Procedure: (§1) The silencing potential of siPLK1-NGs was established through evaluating the cell viability. Hereto, we applied the CellTiter GLO® assay (Promega, Belgium) according to the manufacturer's guidelines. Before initiating the assay, the culture plates and reconstituted assay buffer were placed at room temperature for 30 minutes. Next, the culture medium was replaced by 250 μL fresh cell medium and an equal volume of assay buffer was added. To induce complete cell lysis, the plates were shaken during 2 minutes and the signal was allowed to stabilize the following 10 minutes. 100 μL from each well was subsequently transferred to an opaque 96-well plate, which was measured with a GloMax® 96 Microplate Luminometer (Promega, Belgium). Three biological replicates were performed and data are expressed as the mean cell viability±SEM.
Please note that we only applied siCTRL-loaded NGs in this set of experiments. With the interest of evaluating the possible effect of our treatment on cell viability, the CellTiter GLO® assay was performed as described above. Again, three biological replicates were performed and data are expressed as the mean±SEM.

H1299_WT cells [3] = test: Release of NG-delivered labeled oligonucleotides into the cytosol (positive nuclei); conditions: 40 μM, 20 h, after NG transfection; listed as DL
Procedure: To visualize the FITC-dextran release, a 1 mg/mL dispersion of 10 kDa FITC-dextrans (Sigma-Aldrich, Belgium) in complete cell medium was added during 1 hour at 37° C. in a humidified atmosphere containing 5% CO2. To assess oligonucleotide escape, the NGs were first loaded with 100 nM Alexa Fluor 647-labeled oligonucleotides (21-mer) (Eurogentec, Belgium) according to the procedure described for siRNA complexation. Of note, these oligonucleotides transfer to the nucleus upon release into the cytosol (Rehman et al., ACS Nano, 2013). Following four hours of NG transfection or 1 h incubation with FITC-dextrans, the cells were washed with PBS and received 1.5 mL fresh cell medium with or without 10, 20 or 40 μM DL. After an additional incubation period of 20 hours, the cell medium was removed and nuclei were labeled with Hoechst (Molecular Probes™, Belgium) in cell medium during 15 minutes at 37° C. […]
The samples were imaged using a laser scanning confocal microscope (LSCM, C1si, Nikon) and a 60× oil immersion Plan Apo objective (Nikon, Belgium). […] During data analysis with the ImageJ image processing software (NIH) both the total cell number and amount of cells with a diffuse FITC-dextran labeling or oligonucleotide-positive nuclei were counted. […]

H1299_eGFP cells [4] = test: Side scatter (cellular granularity) by flow cytometry
Procedure: For silencing experiments, H1299_eGFP cells were seeded in 24 well plates at a density of 35000 cells/well and were allowed to settle overnight. Subsequently, the cells were transfected and treated with small molecular adjuvants as described previously. Note that for every siEGFP or siPLK1 condition an siCTRL sample was included to account for potential off target effects. SiNG-mediated eGFP silencing was determined by flow cytometry. […] The cells were collected, centrifuged during 5 minutes at 300 g, resuspended in 300 μL flow buffer and kept on ice until analysis. For each sample the forward and side scatter as well as the green fluorescent signal were measured for at least 5000 cells.

H1299_eGFP cells [5] = test: siPLK1-NG silencing evaluated through cell viability (CellTiter GLO)
Procedure: as §1
All previous experiments were performed on the eGFP reporter gene. To evaluate whether our approach also works in a therapeutic setting we applied siRNA against Polo Like Kinase 1 (PLK1). […] To evaluate the PLK1 silencing we evaluated the effect on cell viability since both induction of cell cycle arrest or apoptosis would reduce the number of cells present compared to the untreated control.

H1299_WT cells [6] = test: Phospholipidosis detection with LipidTOX Red; conditions: 20 h incubation
Procedure: H1299_WT cells were seeded and allowed to settle overnight as detailed previously. Next, the cells were incubated with a mixture of a 1/1000 dilution of the LipidTOX™ red phospholipidosis detection reagent (Thermo Fisher Scientific, USA) and the desired CAD in complete cell medium. Upon 20 hour incubation, the cells were fixed with 4% PFA and stored at 4° C. covered in Vectashield antifade mounting medium containing DAPI. Imaging occurred with a LSCM and a 100× oil immersion objective. DAPI and the LipidTOX™ red phospholipidosis dye were respectively excited with the 408 nm and 561 nm laser lines and the signal intensity was determined with Image J in minimum 30 cells from 5 images per condition.

H1299_WT cells [7] = test: Sphingomyelin detection with lysenin; conditions: after siNG transfection
Procedure: Cell seeding, transfection and DL treatment of the H1299_WT cells occurred similar to the previous microscopy experiments. The subsequent staining procedure was carried out at room temperature. Following one washing step with PBS, the cells were fixed with 4% PFA during 15 minutes. The fixative was removed, the cells washed twice with PBS and permeabilized with 0.5% Tween 20 for 15 minutes. Next, the cells were washed twice with blocking buffer (BB, 2 wt % bovine serum albumin (Amresco, USA) in PBS) and kept in BB during 30 minutes. Upon removal, the cells were incubated 2 hours with a 1 μg/mL lysenin (Sigma-Aldrich, Belgium) solution in BB. Next the cells were washed twice with PBS before incubating 1 hour with the lysenin rabbit anti-human antiserum (1:500 in BB, Peptanova, Germany). Before and after the subsequent 1 hour incubation period with the secondary goat anti-rabbit Alexa Fluor 647 antibody (1:500 in BB, Molecular Probes™, Belgium), cells were washed with BB. Finally the cells were washed with PBS and stored at 4° C. covered with Vectashield containing DAPI. Using the 408 nm and 633 nm laser lines, the nuclei and sphingomyelin were excited respectively and detected with a LSCM and a 60× oil immersion objective.

Structure (SMILES): Clc1ccc2c(c1)CCc1cccnc1C2=C1CCNCC1 [(3) Desloratadine, Desloratadine]
- siNG-mediated gene silencing, 2 h versus 20 h incubation (H1299_eGFP cells [1]; incubation 2 h or 20 h): improve siNG-mediated gene silencing to a similar extent
- adjuvant effect on siNG-mediated eGFP silencing (H1299_eGFP cells [1]; sequential treatment 10, 20 or 40 μM, 20 h, siNGs 2 nM siRNA): significant additional silencing
- additional cytotoxicity compared to siNGs alone (H1299_eGFP cells [2]): did not cause any additional cytotoxicity
- transfected cells remaining viable (H1299_eGFP cells [2]; human, 20 h, 40 μM): ~60%
- Oligonucleotide positive nuclei (H1299_WT cells [3]): 30%
- cellular granularity (SSC) at eGFP readout (H1299_eGFP cells [4]; 40 μM, 2 h incubation): significant though minor augmentation
- increase in SSC signal (H1299_eGFP cells [4]; siNG transfection then 40 μM): 1.8 fold
- cell viability (H1299_eGFP cells [5]; 1 nM siPLK1-NG, second 40 μM treatment): ~50%
- viability at 40 µM (H1299_eGFP cells [5]; 1 nM siPLK1-NG, single 40 μM treatment, 2 h): ~60%
- effect on cell viability reduction (H1299_eGFP cells [5]; 10 nM siPLK1-NG, single 2-hour treatment): maximal effect on cell viability reduction
- LipidTOX Red phospholipid signal (H1299_WT cells [6]): upregulates the presence of phospholipids in a concentration dependent fashion
- sphingomyelin (lysenin) signal (H1299_WT cells [7]): signal increases as a function of the desloratadine concentration

Reference: US11033572B2, “Molecular adjuvants for enhanced cytosolic delivery of active agents” (Universiteit Gent, priority 2017, dated 2021)
